Consider twelve compounds from US12679836B2, “4H-pyrrolo[3,2-c]pyridin-4-one compounds” (Bayer Aktiengesellschaft, priority 2019, dated 2026).

The target in one assay is T1, Bub1 (Homo sapiens, UniProt O43683).
T1 construct: catalytic domain of human Bub1 (amino acids 704-1085); His6 (N); made in house; host or cells: Hi5 insect cells
The assay is described as follows: Bub1 TR-FRET high ATP kinase assay. The class given is biochemical. Particulars: 2 mM ATP. In outline:
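Recombinant His6-tagged human Bub1 catalytic domain (aa 704-1085), from Hi5 insect cells, phosphorylating a biotinylated peptide substrate at high ATP concentration. TR-FRET read-out.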
Background: TR-FRET usually uses a lanthanide donor and a delayed reading to cut background.

Assay [1] concerns the target Ba/F3-EGFR-L858R C797S cells (Homo sapiens, UniProt P00533, C797S/L858R, cells depend on it). In words: Ba/F3 cell survival assay, EGFR L858R C797S. The class given is cell-based. Particulars: without IL-3, without EGF, 48 h; read-out: BA/F3 (EGFR L858R C797S) IC50. The method, then: 293T cells from ATCC were transfected with pBABEpuro expression constructs for mutant EGFR (V769_D770insASV, D770_N771insNPG, N771_P772insH, H773_V774insNPH, E746_A750del, L858R, D770_N771insSVD C797S, E746_A750del C797S, L858R C797S, L861Q) or mutant ERBB2 (A775_G776insYVMA) and pCL-Eco packaging vector using Fugene-6 transfection reagent from Promega. Plates were incubated at 37° C. for 48 h. Retrovirus was harvested by filtering the media supernatant through a 0.45 μm filter.
Ba/F3 cells purchased from DSMZ were grown in RPMI+10% FBS+10 ng/mL IL-3 and infected with filtered retroviral supernatant at a 1:2 dilution. Polybrene was added to a concentration of 8 μg/mL, plates were spun for 90 min, and incubated overnight at 37° C. 2 μg/mL puromycin was added to the infected cells 24 h after infection and cells were continually grown in the presence of puromycin and 10 ng/mL IL-3. Following stably expressing Ba/F3 cell lines were generated: Ba/F3-EGFR-V769_D770insASV, Ba/F3-EGFR-D770_N771insNPG, Ba/F3-EGFR-N771_P772insH, Ba/F3-EGFR-H773_V774insNPH, Ba/F3-EGFR-E746_A750del, Ba/F3-EGFR-L858R, Ba/F3-EGFR-D770_N771 insSVD C797S, Ba/F3-EGFR-E746_A750del C797S, Ba/F3-EGFR-L858R C797S, Ba/F3-EGFR L861Q and Ba/F3-ERBB2-A775_G776insYVMA (Ba/F3-vector-control).
For cell survival assays, Ba/F3 cells were grown to a density of 1-2 million cells per mL, spun down and resuspended in media without IL-3, and replated at a concentration 200,000-500,000 cells per mL. The cells ectopically expressing WT EGFR plated with 10 ng/mL Millipore Culture grade EGF and Ba/F3 cells containing mutant EGFR or Mutant ERBB2 were cultivated without EGF. The cells ectopically expressing pBABEpuro empty vector were plated with 10 ng/mL IL-3.
2 days later, cells were plated in 50 μL in a 384 well plate at a concentration of 4000 cells per well for cells assayed in the absence of IL-3 and 2000 cells per well for cells assayed in the presence of IL-3. 100 nL of compound was added to each well using a 100 nL pin head, and plates were incubated at 37° C. for 48 h.
Cell viability was measured by adding 20 μL of Cell Titer-Glo Luminescent Cell Viability Reagent diluted 1:3 in PBS. Plates were sealed with Perkin Elmer Top-Seal, inverted several times to mix, and immediately centrifuged at 1000 rpm for 2 min. Plates were incubated in low light conditions for 8-10 min and luminescence was measured.

For assay [2], the target named is T2, EGFR with insertion of SVD between D770 and N771 (EGFR ins SVD) (Homo sapiens, UniProt P00533, DUP768-770).
T2 construct: made in house; host or cells: Sf9 insect cells (baculovirus)
The assay is described as follows: Exon20-Mutant-EGFR(D770_N771insSVD) kinase assay (TR-FRET). Format: biochemical. Particulars: 2 mM ATP, several values per example where printed.

Where [3] appears, read: Bub1 high ATP (2 mM) IC50 [mol/l].

“And” between values parts separate entries of the source, which are not always exact repeats. Equal values may be shown once. Read-outs that look alike come from different tables or passages of the source.

T1 sequence (O43683 704-1085): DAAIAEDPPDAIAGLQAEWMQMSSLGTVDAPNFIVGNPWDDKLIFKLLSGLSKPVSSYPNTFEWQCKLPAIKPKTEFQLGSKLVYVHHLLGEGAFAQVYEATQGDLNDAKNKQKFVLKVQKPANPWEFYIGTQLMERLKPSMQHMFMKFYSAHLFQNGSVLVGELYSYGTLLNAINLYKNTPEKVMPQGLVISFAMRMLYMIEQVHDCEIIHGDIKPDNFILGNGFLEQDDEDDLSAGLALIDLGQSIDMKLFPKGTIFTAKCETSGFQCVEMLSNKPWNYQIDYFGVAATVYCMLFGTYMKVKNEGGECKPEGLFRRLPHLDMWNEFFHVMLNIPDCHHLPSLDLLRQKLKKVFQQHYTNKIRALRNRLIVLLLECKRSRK
Sequence of Ba/F3-EGFR-L858R C797S cells (P00533 whole entry C797S/L858R): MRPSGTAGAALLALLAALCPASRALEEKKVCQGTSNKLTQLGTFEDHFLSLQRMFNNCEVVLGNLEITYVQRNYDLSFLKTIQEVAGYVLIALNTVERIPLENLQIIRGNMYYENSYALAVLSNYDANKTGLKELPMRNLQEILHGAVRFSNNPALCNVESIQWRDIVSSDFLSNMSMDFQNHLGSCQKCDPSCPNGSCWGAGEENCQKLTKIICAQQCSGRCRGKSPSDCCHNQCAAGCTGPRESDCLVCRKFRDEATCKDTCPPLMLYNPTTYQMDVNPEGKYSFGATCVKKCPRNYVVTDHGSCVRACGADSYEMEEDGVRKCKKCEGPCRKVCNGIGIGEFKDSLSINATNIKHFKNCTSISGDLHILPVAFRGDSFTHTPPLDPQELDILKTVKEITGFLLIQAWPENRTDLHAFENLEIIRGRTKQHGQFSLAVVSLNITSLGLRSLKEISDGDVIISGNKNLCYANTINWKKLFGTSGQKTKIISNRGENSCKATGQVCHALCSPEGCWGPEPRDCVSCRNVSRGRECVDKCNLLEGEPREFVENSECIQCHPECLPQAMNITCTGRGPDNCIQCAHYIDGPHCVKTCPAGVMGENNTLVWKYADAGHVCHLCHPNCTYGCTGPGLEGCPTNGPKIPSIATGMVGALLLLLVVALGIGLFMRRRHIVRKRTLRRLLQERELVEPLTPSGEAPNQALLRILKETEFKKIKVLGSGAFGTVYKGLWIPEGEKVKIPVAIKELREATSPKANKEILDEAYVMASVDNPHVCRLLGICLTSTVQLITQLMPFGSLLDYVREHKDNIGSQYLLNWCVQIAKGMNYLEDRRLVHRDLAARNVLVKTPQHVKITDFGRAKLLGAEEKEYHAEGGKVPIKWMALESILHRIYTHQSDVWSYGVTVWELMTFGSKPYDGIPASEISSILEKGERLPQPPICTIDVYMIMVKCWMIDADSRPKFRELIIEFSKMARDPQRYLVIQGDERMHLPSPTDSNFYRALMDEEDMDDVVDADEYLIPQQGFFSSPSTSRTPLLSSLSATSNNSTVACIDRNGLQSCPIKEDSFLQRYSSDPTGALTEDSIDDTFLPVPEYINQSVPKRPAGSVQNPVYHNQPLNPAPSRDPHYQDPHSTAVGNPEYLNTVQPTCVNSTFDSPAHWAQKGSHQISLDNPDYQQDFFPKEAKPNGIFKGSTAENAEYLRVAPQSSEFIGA
T2 sequence (P00533 with tags, fused parts or gaps DUP768-770): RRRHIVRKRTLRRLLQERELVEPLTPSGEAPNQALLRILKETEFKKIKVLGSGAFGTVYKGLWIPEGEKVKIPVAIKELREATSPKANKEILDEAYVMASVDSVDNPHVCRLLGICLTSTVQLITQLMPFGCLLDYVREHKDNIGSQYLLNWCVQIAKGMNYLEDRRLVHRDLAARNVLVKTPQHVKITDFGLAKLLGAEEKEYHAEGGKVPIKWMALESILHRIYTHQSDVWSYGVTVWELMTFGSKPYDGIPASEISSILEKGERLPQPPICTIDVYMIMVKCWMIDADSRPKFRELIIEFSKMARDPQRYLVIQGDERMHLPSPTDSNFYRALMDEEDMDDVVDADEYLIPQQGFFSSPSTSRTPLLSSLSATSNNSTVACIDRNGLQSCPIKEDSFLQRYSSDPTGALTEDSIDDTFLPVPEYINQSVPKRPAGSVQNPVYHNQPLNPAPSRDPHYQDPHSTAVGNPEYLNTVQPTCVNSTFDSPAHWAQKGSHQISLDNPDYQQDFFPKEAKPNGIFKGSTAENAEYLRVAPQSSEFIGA

In turn, `COc1c(Cl)cccc1Nc1c(-c2ccncc2OC[C@@H]2COCCO2)[nH]c2c1C(=O)NCC2` (single isomer, unassigned) [Example 2] came in with an IC50 against Bub1 (setting [3]) of 6040 nM. In assay [1], the GI50 was determined as 0.603 nM.
For `COc1c(Cl)cccc1Nc1c(-c2ccncc2OCC2COC(C)(C)CO2)[nH]c2c1C(=O)NCC2` (single isomer, unassigned) [Example 32, 3-(3-chloro-2-methoxyanilino)-2-{3-[(5,5-dimethyl-1,4-dioxan-2-yl)methoxy]pyridin-4-yl}-1,5,6,7-tetrahydro-4H-pyrrolo[3,2-c]pyridin-4-one], the “mutEGFR (D770_N771insSVD) kinase assay IC50” value (“mutEGFR” below) in assay [2] came to 0.127 nM. Also, in assay [1], the GI50 is 1.12 nM.
`O=C1NCCc2[nH]c(-c3ccncc3OCC3COCCO3)c(Nc3cccc(Cl)c3Cl)c21` (single isomer, unassigned) [Example 8, 3-(2,3-dichloroanilino)-2-{3-[(1,4-dioxan-2-yl)methoxy]pyridin-4-yl}-1,5,6,7-tetrahydro-4H-pyrrolo[3,2-c]pyridin-4-one] displayed an IC50 on Bub1 (setting [3]) of 7880 nM. For the same compound, the “mutEGFR” value in assay [2] is 0.0799 nM. Also, the GI50 in assay [1] was 1.2 nM.
As to `CCc1c(Cl)cccc1Nc1c(-c2ccncc2OC[C@@H]2CN(C)CCO2)[nH]c2c1C(=O)NCC2` [Example 56, 3-(3-chloro-2-ethylanilino)-2-(3-{[(2S)-4-methylmorpholin-2-yl]methoxy}pyridin-4-yl)-1,5,6,7-tetrahydro-4H-pyrrolo[3,2-c]pyridin-4-one], on Bub1 (setting [3]), the IC50 came out at 16500 nM. In addition, the “mutEGFR” value in assay [2] came out at 0.258 nM. Also, the GI50 in assay [1] is 1.31 nM.
Turning to `COc1c(F)cccc1Nc1c(-c2ccncc2OCC2COCCO2)[nH]c2c1C(=O)NCC2` (single isomer, unassigned) [Example 5, 2-{3-[(1,4-dioxan-2-yl)methoxy]pyridin-4-yl}-3-(3-fluoro-2-methoxyanilino)-1,5,6,7-tetrahydro-4H-pyrrolo[3,2-c]pyridin-4-one], the IC50 at Bub1 (setting [3]) stood at 12900 nM. For the same compound, the “mutEGFR” value in assay [2] was <0.0725 nM and 0.0851 nM and 0.112 nM and 0.114 nM and 0.12 nM and 0.124 nM and 0.136 nM. Moreover, the GI50 in assay [1] is 2.67 nM.
`Cc1c(Cl)cccc1Nc1c(-c2ccncc2OC[C@@H]2CN(C)CCO2)[nH]c2c1C(=O)NCC2` [Example 42, 3-(3-chloro-2-methylanilino)-2-(3-{[(2S)-4-methylmorpholin-2-yl]methoxy}pyridin-4-yl)-1,5,6,7-tetrahydro-4H-pyrrolo[3,2-c]pyridin-4-one] yielded an IC50 against Bub1 (setting [3]) greater than 20000 nM. Besides, the “mutEGFR” value in assay [2] is 0.155 nM. Also, in assay [1], the GI50 was determined as 1.63 nM.
Compound `Cc1c(F)cccc1Nc1c(-c2ccncc2OCC2COCCO2)[nH]c2c1C(=O)NCC2` (single isomer, unassigned) [Example 48, 2-[3-(1,4-dioxan-2-ylmethoxy)-4-pyridyl]-3-(3-fluoro-2-methyl-anilino)-1,5,6,7-tetrahydropyrrolo[3,2-c]pyridin-4-one] displayed an IC50 at Bub1 (setting [3]) of 12200 nM. The “mutEGFR” value in assay [2] worked out at 0.249 nM.
`Cc1c(Cl)cccc1Nc1c(-c2ccncc2OC[C@H]2COCCO2)[nH]c2c1C(=O)NCC2` (single isomer, unassigned) [Example 50] displayed an IC50 on Bub1 (setting [3]) of 3540 nM. In addition, the “mutEGFR” value in assay [2] worked out at 0.17 nM. Also, the GI50 in assay [1] was determined as 1.6 nM.
The compound `COc1c(Cl)cccc1Nc1c(-c2ccncc2OC[C@@H]2COCCN2C)[nH]c2c1C(=O)NCC2` [Example 21, 3-(3-chloro-2-methoxyanilino)-2-(3-{[(3S)-4-methylmorpholin-3-yl]methoxy}pyridin-4-yl)-1,5,6,7-tetrahydro-4H-pyrrolo[3,2-c]pyridin-4-one] yielded an IC50 at Bub1 (setting [3]) of 3790 nM. In addition, the “mutEGFR” value in assay [2] amounted to 0.126 nM. In addition, the GI50 in assay [1] worked out at 0.444 nM.
For `COc1c(F)cccc1Nc1c(-c2ccncc2OC[C@@H]2COCCN2C)[nH]c2c1C(=O)NCC2` [Example 20, 3-(3-fluoro-2-methoxyanilino)-2-(3-{[(3S)-4-methylmorpholin-3-yl]methoxy}pyridin-4-yl)-1,5,6,7-tetrahydro-4H-pyrrolo[3,2-c]pyridin-4-one], at Bub1 (setting [3]), the IC50 turned out to be 9530 nM. Further, the “mutEGFR” value in assay [2] was found to be 0.0872 nM. The GI50 in assay [1] is 0.791 nM.
Compound `Cc1c(Cl)cccc1Nc1c(-c2ccncc2OCC2COC(C)(C)CO2)[nH]c2c1C(=O)NCC2` (single isomer, unassigned) [Example 46, 3-(3-chloro-2-methyl-anilino)-2-[3-[(5,5-dimethyl-1,4-dioxan-2-yl)methoxy]-4-pyridyl]-1,5,6,7-tetrahydropyrrolo[3,2-c]pyridin-4-one] came in with an IC50 against Bub1 (setting [3]) of 13000 nM. In addition, in assay [2], the “mutEGFR” value was determined as 0.433 nM.
Regarding `COc1c(F)cccc1Nc1c(-c2ccncc2OCC2CN(C)CCO2)[nH]c2c1C(=O)NCC2` (single isomer, unassigned) [Example 14, 3-(3-fluoro-2-methoxyanilino)-2-{3-[(4-methylmorpholin-2-yl)methoxy]pyridin-4-yl}-1,5,6,7-tetrahydro-4H-pyrrolo[3,2-c]pyridin-4-one], the IC50 on Bub1 (read-out: Bub1 high ATP (2 mM) IC50 [mol/l]) was greater than 20000 nM. In addition, the “mutEGFR” value in assay [2] came to 0.13 nM. Besides, in assay [1], the GI50 is 1.91 nM.
